Assay results as given in PubChem BioAssay (NCI).
Several values for one entry are separate records, joined by “and”; a condition that tells them apart may be missing. Identical values can stand only once.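 Method: 48-hour compound exposure of cells in 96-well plates, five concentrations, linear interpolation of endpoints. GI50 = concentration required for 50% inhibition of growth. TGI is the concentration that stops growth completely.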

Assays:
Experiment in all cases: NCI tumour cell line growth inhibition, 48 h
A549 NSCLC = system: A549 NSCLC
CAKI-1 renal = system: CAKI-1 renal
CCRF-CEM leukemia = system: CCRF-CEM leukemia
EKVX NSCLC = system: EKVX NSCLC
MOLT-4 leukemia = system: MOLT-4 leukemia
OVCAR-8 ovarian = system: OVCAR-8 ovarian
RPMI-8226 leukemia = system: RPMI-8226 leukemia
SK-OV-3 ovarian = system: SK-OV-3 ovarian
SW-620 colon = system: SW-620 colon
UACC-257 melanoma = system: UACC-257 melanoma

Row | SMILES | GI50 (A549 NSCLC) | TGI (A549 NSCLC) | GI50 (CAKI-1 renal) | TGI (CAKI-1 renal) | GI50 (CCRF-CEM leukemia) | TGI (CCRF-CEM leukemia) | GI50 (EKVX NSCLC) | TGI (EKVX NSCLC) | GI50 (MOLT-4 leukemia) | TGI (MOLT-4 leukemia) | GI50 (OVCAR-8 ovarian) | TGI (OVCAR-8 ovarian) | GI50 (RPMI-8226 leukemia) | TGI (RPMI-8226 leukemia) | GI50 (SK-OV-3 ovarian) | TGI (SK-OV-3 ovarian) | GI50 (SW-620 colon) | TGI (SW-620 colon) | GI50 (UACC-257 melanoma) | TGI (UACC-257 melanoma)
1 | CCc1nc2cc(/C=C/C(=O)NO)c(F)cc2c(=O)n1CCc1ccccc1 | 1.35 µM | 5.39 µM | 0.822 µM | 6.2 µM | 0.564 µM | > 100 µM | 2.36 µM | 10.7 µM | 1.03 µM | > 100 µM | 0.753 µM | 9.22 µM | 0.654 µM | 44.8 µM | 1.68 µM | 5.28 µM | 0.619 µM | 13.9 µM | 2.12 µM | 7.41 µM
2 | COc1ccc(-c2ccc(=O)oc2-c2cc(OC)c(OC)c(OC)c2)cc1O | 0.0595 µM | > 100 µM | 0.0459 µM | > 100 µM | 0.0219 µM |  | 0.0807 µM | > 100 µM | 0.0512 µM | > 100 µM | 0.0498 µM | > 100 µM | 0.0251 µM | 0.956 µM | 0.0307 µM | > 100 µM | < 0.0147 µM | > 100 µM | 0.099 µM | > 100 µM
3 | COc1cc2c(cc1OCCN1C(=O)c3cccc4cccc(c34)C1=O)N=C[C@@H]1CCCN1C2=O | 17.7 µM | 17.1 µM and 53.1 µM | 18.8 µM | 19.8 µM and 36.2 µM | 1.44 µM | 23.1 µM and 19.5 µM | 13.8 µM | 18.3 µM and 26.7 µM | 42.2 µM | 11 µM and > 100 µM | 16.6 µM | 17.1 µM and 36.7 µM | 26 µM | 32 µM and > 100 µM |  | 46.5 µM | 17.2 µM | 15.8 µM and > 100 µM | 18 µM | 19 µM and 35.8 µM
4 | Cc1ccc2nc(NC(=O)CSC(=S)N3CCN(Cc4ccccc4)CC3)sc2c1 | > 100 µM | > 100 µM | > 85.8 µM | > 100 µM | > 100 µM | > 100 µM | > 100 µM | > 100 µM | > 100 µM | > 100 µM | > 100 µM | > 100 µM | 75.9 µM | > 100 µM | > 100 µM | > 100 µM | > 100 µM | > 100 µM | > 100 µM | > 100 µM
5 | NC(CCc1nc(-c2ccccc2)cs1)C(=O)O (stereo not given) |  | > 100 µM |  | > 100 µM |  | > 100 µM |  | > 100 µM |  | > 100 µM |  | > 100 µM |  | > 100 µM |  | > 100 µM |  | > 100 µM |  | > 100 µM
6 | COc1cccc(NC(=O)c2ccc(C(F)(F)F)nc2Nc2ccc(Cl)cc2C)c1 | 10.6 µM | 22.4 µM | 2.76 µM | 17.1 µM | 11.1 µM | 34.4 µM | 10.2 µM | 24.2 µM | 10.2 µM | 51 µM | 11.8 µM | 24.1 µM | 5.54 µM | 28.4 µM | 13.4 µM | 27.8 µM | 14.5 µM | 28.7 µM | 13.4 µM | 26.2 µM
7 | COC(=O)c1c(C(=O)OC)c(C(=O)OC)c(C(=O)OC)c1C(=O)OC |  | > 100 µM |  | > 100 µM |  | > 100 µM |  | > 100 µM |  | > 100 µM |  | > 100 µM |  | > 100 µM |  | > 100 µM |  | > 100 µM |  | > 100 µM
8 | CCC1N2CCCCC2[C@@H]2c3[nH]c4ccccc4c3CCN12 (stereo not given in full) |  | > 100 µM |  | > 100 µM |  | > 100 µM |  | > 100 µM |  | > 100 µM |  | > 100 µM |  | > 100 µM |  | > 100 µM |  | > 100 µM |  | > 100 µM
9 | Cc1cc(Cl)ccc1N1C(=O)C(=O)C(c2nc3ccccc3s2)/C(=N\NC(=O)c2ccccc2O)C1=O (stereo not given) |  | > 100 µM |  | > 100 µM |  | > 100 µM |  | > 100 µM |  | > 21 µM |  | > 100 µM |  | > 100 µM |  | > 100 µM |  | > 100 µM |  | > 100 µM
10 | COc1cc([N+](=O)[O-])c(S(=O)(=O)O)cc1-n1nc(-c2ccccc2)n[n+]1-c1cc(S(=O)(=O)[O-])c([N+](=O)[O-])cc1OC |  | > 100 µM |  | > 100 µM |  | > 100 µM |  | > 100 µM |  | > 100 µM |  | > 100 µM |  | > 100 µM |  | > 100 µM |  | > 100 µM |  | > 100 µM
11 | COc1ccc(S(=O)(=O)N2CCCCC2)cc1NC(=O)c1[nH]c(C)c2c1CCCCC2=O | 2.26 µM | 15 µM | 0.419 µM | 56.7 µM | 3.14 µM | > 100 µM | 3.78 µM | > 100 µM | 4.31 µM | > 100 µM | 2.19 µM | 46.6 µM | 1.46 µM | 32.4 µM | 2.14 µM | 44.4 µM | 8.04 µM | > 100 µM | 0.853 µM | 24.7 µM
12 | CNC1=C(Br)C(=O)C2=C(C1=O)C1C3=C(C(=O)C=CC3=O)C2c2ccccc21 (stereo not given) | 3.02 µM |  | 6.14 µM | 13.9 µM | 0.472 µM | > 100 µM | 1.94 µM | 3.7 µM | 0.473 µM |  | 2.99 µM | 8.93 µM |  | > 31.4 µM | 10.3 µM | > 55.2 µM | 2.79 µM | > 29.1 µM | 12.7 µM | > 100 µM
13 | NC(N)=NS(=O)(=O)c1ccc(NC(=O)c2ccc(Cl)c3c(Nc4ccc(S(=O)(=O)N=C(N)N)cc4)c4ccccc4nc23)cc1 |  | > 100 µM |  | > 100 µM |  | > 100 µM |  | > 100 µM |  | > 100 µM |  | > 100 µM |  | > 100 µM |  | > 100 µM |  | > 100 µM |  | > 100 µM
14 | C=C(C)[C@@H]1CC[C@]2(C)[C@H](CC=C3[C@@H]4CC(C)(C)CC[C@]4(C(=O)OC)CC[C@]32C)[C@@]1(C)CC/C(N)=N/O | 2.15 µM | 7.75 µM | 2.4 µM | 15.1 µM | 2.19 µM | 6.2 µM | 2.11 µM | 6.8 µM | 2.09 µM | 5.25 µM | 2.27 µM | 6.29 µM | 1.95 µM | 6.57 µM | 4.62 µM | 27.2 µM | 1.88 µM | 4.32 µM | 2.01 µM | 5.34 µM
